Test results as given in patent US20240212786A1, “METHOD OF DISCOVERING NOVEL ANTICANCER DRUG USING CO-ESSENTIALITY NETWORK, AND AN APPARATUS THEREOF” (POSTECH RESEARCH AND BUSINESS DEVELOPMENT FOUNDATION, priority 2022, published 2024).
pIC50: −log10 of the molar value. Counter-ions that a name gives are not always drawn.

Tests used:
[1] = tested on: COADREAD differential gene expression; 15 large intestine cancer cell lines; assay: Reversal gene expression (RGE) effect from CMap L1000 profiles; assay type: cell-based
Text: To estimate the efficacy of the drug by altering the gene expression to be a reversal of that in cancer conditions, the present inventors used the L1000 dataset from CMap[9]. From the L1000 dataset, the present inventors obtained 6,056 compounds with PubChem IDs and expression profiles for 978 genes directly measured in 15 cancer cell lines whose primary site was the large intestine: CL34, HCT116, HELA, HT115, HT29, LOVO, MDST8, NCIH508, NCIH716, RKO, SNU1040, SNUC5, SW480, SW620, and SW948. The present inventors initially computed the RGE effect between the differential gene expression of COADREAD (obtained via CREEDS[10], signature ID: dz552) and the compound's transcriptional profile using Zhang's connection score, that is, the absolute value of the anti-correlated, standardized ranked connection score. Since drugs have multiple transcriptional profiles for each cell line depending on the treatment dose and time, the present inventors calculated the max RGE effect for each cell line and used the median RGE effect across cell lines as a representative value. Finally, the performance of the network in predicting the drug's RGE effect was measured using the Spearman correlation coefficient between the TC score and the RGE effect of drugs that exist in both PanDrugs and CMap.

[2] = tested on: cancer cell lines of COADREAD; conditions: median over COADREAD cancer cell lines, PRISM secondary screen data; cited from earlier work
SK-HEP-1 cells = assay: MTS cell viability assay, SK-HEP-1; assay type: cell-based; conditions: Homo sapiens, SK-HEP1, 72 h
Method: (§1) The human LIHC cell lines SNU398, SK-HEP-1, and Huh7 were obtained from the Korean Cell Line Bank (Scoul, Korea), and HepG2 cells were obtained from the American Type Culture Collection (Manassas, VA, USA). SNU398 and Huh7 were cultured in Roswell Park Memorial Institute (RPMI) 1640 medium (Welgene) supplemented with 10% fetal bovine serum (FBS, Merck), 100 IU/mL penicillin, and 100 μg/mL streptomycin (Welgene). SK-HEP-1 and HepG2 were maintained in Eagle's Minimum Essential medium (EMEM, Lonza) supplemented with 10% FBS. All cells were incubated at 37° C. in a humidified incubator with 5% CO2.
(§2) To assess cell viability, SNU398, SK-HEP-1, Huh7, and HepG2 cells were plated in 96-well plates at a density of 8×10^3 or 1×10^4 cells per well. […] After incubation for 72 h, cell viability was determined using the phenazine methosulfate (PMS)/3-(4,5-dimethylthiazol-2-yl)-5-(3-carboxymethoxyphenyl)-2-(4-sulfophenyl)-2H-tetrazolium, inner salt (MTS) assay using the Cell Titer 96 Aqueous Non-Radioactive Cell Proliferation Assay kit (Promega, Madison, WI, USA) according to the manufacturer's instructions. The absorbance at 490 nm was measured using a microplate reader (Multiskan SkyHigh Microplate Spectrophotometer, Thermo Scientific). IC50 values were calculated from dose-response curves using GraphPad Prism 9 (GraphPad Software).

HepG2 cells = assay: MTS cell viability assay, HepG2; assay type: cell-based; conditions: Homo sapiens, 72 h
Method: as §1, §2

SNU398 cells = assay: MTS cell viability assay, SNU398; assay type: cell-based; conditions: Homo sapiens, SNU-398, 72 h
Method: as §1, §2

Huh7 cells = assay: MTS cell viability assay, Huh7; assay type: cell-based; conditions: Homo sapiens, Huh-7, 72 h
Method: as §1, §2

## Cn1c(=O)c(F)c(Nc2ccc(I)cc2F)c2c(=O)n(C[C@@H](O)CO)cnc21 [TAK-733]
[1]; COADREAD
  rank percentile of RGE effect: 91.18%
[1]; median across cell lines of max RGE effect, Zhang's connection score, COADREAD signature
  RGE effect: 0.123
[2]
  pIC50: 8.99

## CC(C)C[C@H](NC(=O)CNC(=O)c1cc(Cl)ccc1Cl)B1OC(=O)C(CC(=O)O)(CC(=O)O)O1 [ixazomib citrate]
SK-HEP-1 cells
  pIC50: 6.57
HepG2 cells
  pIC50: 6.71
SNU398 cells
  pIC50: 6.13
Huh7 cells
  pIC50: 6.86
